Legend:
[1] = test system: C2C12 cells; test: Myoblast proliferation verification (MTT assay) in C2C12 cells; type: cell-based, mouse; settings: for increased proliferation of cells compared to untreated cells: isolated final compounds, 0.5 ng/ml, 1 day, MTT (FIG. 7a)
Method: C2C12 cells, a mouse myoblast cell line, were cultured in Dulbecco's Modified Eagle's Medium (DMEM) containing 10% Fetal bovine serum (FBS) and 1% Penicillin/streptomycin (P/S).
To verify cell proliferation, the cell culture medium was removed and the cells was washed with DMEM, and then 500 μl of MTT reagent (0.5 mg/ml) dissolved in phosphate buffered saline (PBS) was added to each well and left for 1 hour at 37° C. The reaction solution was removed and 1000 μl of dimethyl sulfoxide (DMSO) was added to each well. Purple formazan crystals were completely dissolved in DMSO and absorbance was measured at 540 nm.

[2] = test system: C2C12 cells; test: Differentiation of myoblasts into myotubes (Giemsa stain, fusion index); type: cell-based, mouse
Method: The medium was changed every 2 days and the cells were cultured at 37° C. The medium of the cells was removed and the cells were washed with PBS. After washing, a 1:1 volume ratio of methanol:PBS was treated and then fixed for 2 minutes. Additionally, a 2:1 volume ratio of methanol:PBS reagent was added, followed by further fixation for 2 minutes. After 2 minutes, 0.04% Giemsa reagent was added, allowed to stand for 30 minutes, washed with PBS after 30 minutes, and then the appearance of the cells was observed under a microscope, and three photos of the cells were taken (300×). In the photographs taken, the number of fused nuclei in the myotube cells was counted, the total number of nuclei was counted, and the number of fused nuclei was divided by the total number of nuclei to calculate % value.

[3] = test system: C57BL/6 mice; test: Muscle regeneration effect in mice with or without cardiotoxin (CTX) injection into gastrocnemius muscle; type: in vivo, mouse
Method: In order to observe the muscle regeneration effect according to the treatment of hot water extract of licorice or the final substance liquiritigenin, the mice were ingested with licorice hot water extract or liquiritigenin and Cardiotoxin (CTX) was/was not injected into the muscle and then the morphology and regeneration of the muscles were observed. C57BL/6 mice were ingested with licorice hot water extract (100 mg/kg) or liquiritigenin (15 mg/kg) and […] cardiotoxin was injected into the gastrocnemius muscle. After cardiotoxin injection, licorice hot water extract or liquiritigenin was ingested every day, and muscle tissue was sampled 7 days after non-injection or injection of cardiotoxin. The diameter (μm) of the muscle secured 7 days after non-injection or injection of cardiotoxin was measured using an image J program.

[4] = isolated final compounds, 0.25 ng/ml (FIG. 7b)
[5] = purchased compounds, 0.25 ng/ml (FIG. 7c)
[6] = purchased compound, 15 mg/kg ingested daily

For COc1c(/C=C/C(=O)c2ccc(O)cc2)ccc(O)c1O [licochalcone B, Licochalcone B], which “increased proliferation of cells compared to untreated cells” value (“increased proliferation of cells” below) [1] is on record?
The value was 11%.

And the “proliferation of cells increased compared to non-treated cells” value ([1]; purchased compound, 1 ng/ml (FIG. 7c))?
Its value is 11%.

And the “myotube formation and fusion index increase” value [2, 4]?
Its value is 19%.

What about the “myotube formation and fusion index increase” value ([2]; purchased compounds (FIG. 7d)) of the same compound?
The value was 20%.

With O=C1C[C@@H](c2ccc(O)cc2)Oc2cc(O)ccc21 [liquiritigenin, Liquiritigenin] as the compound, how does the “increased proliferation of cells” value [1] read?
Its value is 10%.

What about the “proliferation of cells increased compared to non-treated cells” value [1, 5] of the same compound?
The value was 5%.

And the “myotube formation and fusion index increase” value [2, 4]?
Its value is 13%.

And the “myotube formation and fusion index increase” value ([2]; purchased compounds (FIG. 7d))?
The value was 20%.

What about the “diameter of the regenerated muscle” value ([3]; 15 mg/kg, CTX-injected, 7 days, not ingested 78±4) of the same compound?
Its value is 91±3 μm.

What about the “muscle diameter (muscle fiber size)” value ([3]; 15 mg/kg, second pair of values, apparently non-injected muscle, not ingested 124±4) of the same compound?
The value was 139±4 μm.

What about the “body and gastrocnemius muscle weights vs non-treated controls” value [3, 6] of the same compound?
The value was “similar”.

What about the “muscle mass reductions vs non-treated controls” value [3, 6] of the same compound?
Its value is “less”.

With COc1c(/C=C/C(=O)c2ccc(O)c(O)c2)ccc(O)c1O [tetrahydroxymethoxychalcone, Tetrahydroxy methoxychalcone] as the compound, how does the “increased proliferation of cells” value [1] read?
The value was 8%.

What about the “proliferation of cells increased compared to non-treated cells” value [1, 5] of the same compound?
Its value is 5%.

And the “myotube formation and fusion index increase” value [2, 4]?
The value was 28%.

And the “myotube formation and fusion index increase” value ([2]; purchased compounds (FIG. 7d))?
The value was 23%.
